The record followed here is PMC4081830, “Structure of the Trehalose-6-phosphate Phosphatase from Brugia malayi Reveals Key Design Principles for Anthelmintic Drugs” (PLoS Pathogens, 2014).

Data set [1] concerns the target T1, B. malayi T6PP (trehalose-6-phosphate phosphatase), wild type (Brugia malayi, UniProt A8NS89).
T1 construct: gene Bm1_08695; full-length (492 residues) from cDNA library, modified pET-15b(TEV), E. coli T7 Express; N-terminal His-tag removed by TEV protease
T1 sequence (A8NS89 1-492): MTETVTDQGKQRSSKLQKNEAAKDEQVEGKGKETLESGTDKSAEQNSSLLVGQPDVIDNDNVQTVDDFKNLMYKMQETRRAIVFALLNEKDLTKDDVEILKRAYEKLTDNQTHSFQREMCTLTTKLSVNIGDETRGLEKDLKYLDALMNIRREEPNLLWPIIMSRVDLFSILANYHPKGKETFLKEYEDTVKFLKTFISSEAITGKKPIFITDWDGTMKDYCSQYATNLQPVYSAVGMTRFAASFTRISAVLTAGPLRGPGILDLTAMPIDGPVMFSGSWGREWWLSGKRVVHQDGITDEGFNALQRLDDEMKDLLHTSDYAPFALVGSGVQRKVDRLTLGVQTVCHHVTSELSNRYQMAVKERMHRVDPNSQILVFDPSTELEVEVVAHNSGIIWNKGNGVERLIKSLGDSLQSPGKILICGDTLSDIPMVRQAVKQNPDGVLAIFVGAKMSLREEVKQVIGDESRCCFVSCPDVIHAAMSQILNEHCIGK
The data set can be described thus: inhibition kinetics. It is filed as biochemical.

The target in data set [2] is T1, B. malayi T6PP (trehalose-6-phosphate phosphatase), wild type. The data set can be described thus: steady-state inhibition kinetics, EnzChek phosphate assay. Particulars: read-out: KI, trehalose 6-sulfate. It is filed as biochemical.
Data set [3] deals with T2, B. malayi T6PP (trehalose-6-phosphate phosphatase), wild type (Brugia malayi, UniProt A8NS89, E384A).
T2 construct: gene Bm1_08695
Nature of the data set: biochemical. The source says: (§1) steady-state inhibition kinetics, EnzChek phosphate assay on B. malayi T6PP (trehalose-6-phosphate phosphatase), wild type

Data set [4] concerns the target T3, B. malayi T6PP (trehalose-6-phosphate phosphatase), wild type (Brugia malayi, UniProt A8NS89, Y225A).
T3 construct: gene Bm1_08695
The data set can be described thus: biochemical.
Text: as §1

The target in data set [5] is T4, B. malayi T6PP (trehalose-6-phosphate phosphatase), wild type (Brugia malayi, UniProt A8NS89, R337A).
T4 construct: gene Bm1_08695
The data set can be described thus: biochemical.
Text: as §1

In data set [6] the target is T5, B. malayi T6PP (trehalose-6-phosphate phosphatase), wild type (Brugia malayi, UniProt A8NS89, W280A).
T5 construct: gene Bm1_08695
Nature of the data set: biochemical.
Text: as §1

The target of data set [7] is T6, B. malayi T6PP (trehalose-6-phosphate phosphatase), wild type (Brugia malayi, UniProt A8NS89, Y221A).
T6 construct: gene Bm1_08695
Nature of the data set: biochemical.
Text: as §1

For data set [8], the target named is T7, B. malayi T6PP (trehalose-6-phosphate phosphatase), wild type (Brugia malayi, UniProt A8NS89, Q332A).
T7 construct: gene Bm1_08695
The data set can be described thus: biochemical.
Text: as §1

For data set [9], the target named is T8, B. malayi T6PP (trehalose-6-phosphate phosphatase), wild type (Brugia malayi, UniProt A8NS89, K334A).
T8 construct: gene Bm1_08695
Nature of the data set: biochemical.
Text: as §1

The target of data set [10] is T9, B. malayi T6PP (trehalose-6-phosphate phosphatase), wild type (Brugia malayi, UniProt A8NS89, S329A).
T9 construct: gene Bm1_08695
Nature of the data set: biochemical.
Text: as §1

Data set [11] has as its target T10, B. malayi T6PP (trehalose-6-phosphate phosphatase), wild type (Brugia malayi, UniProt A8NS89, N228A).
T10 construct: gene Bm1_08695
Nature of the data set: biochemical.
Text: as §1

Data set [12] deals with T11, B. malayi T6PP (trehalose-6-phosphate phosphatase), wild type (Brugia malayi, UniProt A8NS89, D378A).
T11 construct: gene Bm1_08695
The data set can be described thus: biochemical.
Text: as §1

For data set [13], the system named is O=P(O)(O)OC[C@H]1O[C@H](O[C@H]2O[C@H](CO)[C@@H](O)[C@H](O)[C@H]2O)[C@H](O)[C@@H](O)[C@@H]1O. Nature of the data set: steady-state kinetics, EnzChek phosphate assay. Particulars: 25 mM Tris pH 7.5, 50 mM NaCl, 5 mM MgCl2. It is filed as biochemical, Brugia malayi. The text has this: steady-state kinetics, EnzChek phosphate assay on T6PP-Δ59
Substrate in data set [14]: O=P(O)(O)OC[C@H]1O[C@H](O[C@H]2O[C@H](CO)[C@@H](O)[C@H](O)[C@H]2O)[C@H](O)[C@@H](O)[C@@H]1O
Nature of the data set: steady-state kinetics, EnzChek phosphate assay. It is filed as biochemical, Brugia malayi. Particulars: 25 mM Tris pH 7.5, 50 mM NaCl, 5 mM MgCl2. The source holds these as a separate data set.

By Ki is commonly meant a dissociation constant, usually derived from enzyme kinetics or from competition with a known ligand. Take `O=P(O)(O)OC[C@H]1OC(O)[C@H](O)[C@@H](O)[C@@H]1O` (stereo partly shown) [glucose 6-phosphate]: in data set [1] (no inhibition, substrate trehalose 6-phosphate), the Ki is over 10000 µM.

Turning to `O=S(=O)(O)OC[C@H]1O[C@H](O[C@H]2O[C@H](CO)[C@@H](O)[C@H](O)[C@H]2O)[C@H](O)[C@@H](O)[C@@H]1O` [trehalose 6-sulfate], the Ki is 82 ± 7 µM in data set [2]; 200 ± 30 µM in data set [3]; 400 ± 40 µM in data set [4]; 700 ± 100 µM in data set [5]; 270 ± 50 µM in data set [6]; 1300 µM in data set [7]. Moreover, the Ki came out at 1000 µM in data set [8]; 150 ± 20 µM in data set [9]; 240 ± 30 µM in data set [10]; 16 ± 2 µM in data set [11]; 320 ± 30 µM in [12].

With `OC[C@H]1O[C@H](O[C@H]2O[C@H](CO)[C@@H](O)[C@H](O)[C@H]2O)[C@H](O)[C@@H](O)[C@@H]1O` [trehalose], in data set [1], the inhibition constant Ki is over 10000 µM.

For orientation: Km means the substrate concentration at which the rate is half of its maximum. In general, kcat refers to the maximal rate divided by the concentration of active sites. By kcat/Km is commonly meant the turnover number divided by the Michaelis constant. For the molecule T6PP-Δ59 (Brugia malayi), in [13], the Km is 260 ± 20 µM, the catalytic constant (kcat) amounted to 28 ± 1 s⁻¹ and the kcat/Km came out at 110000 M⁻¹ s⁻¹.

B1: B. malayi T6PP (trehalose-6-phosphate phosphatase), wild type (Brugia malayi) (protein)
chain: T1 sequence (A8NS89 1-492)
notes: full-length (492 residues) from cDNA library, modified pET-15b(TEV), E. coli T7 Express; N-terminal His-tag removed by TEV protease
For the molecule B1, in data set [14], the Michaelis constant (Km) turned out to be 360 ± 60 µM, the turnover number (kcat) was determined as 24 ± 2 s⁻¹ and the kcat/Km turned out to be 69000 M⁻¹ s⁻¹.
